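Compound exposure: 48 hours, 5 concentrations, 96-well plates. TGI: concentration producing complete growth inhibition.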
Key:
Assay in all cases: inhibition of tumour cell growth, NCI panel, 48 h
786-0 renal = system: 786-0 renal
A498 renal = system: A498 renal
A549 NSCLC = system: A549 NSCLC
ACHN renal = system: ACHN renal
CAKI-1 renal = system: CAKI-1 renal
CCRF-CEM leukemia = system: CCRF-CEM leukemia
COLO 205 colon = system: COLO 205 colon
DLD-1 colon = system: DLD-1 colon
DMS 114 small cell lung = system: DMS 114 small cell lung
EKVX NSCLC = system: EKVX NSCLC
HCC-2998 colon = system: HCC-2998 colon
HCT-116 colon = system: HCT-116 colon
HCT-15 colon = system: HCT-15 colon
HL-60(TB) leukemia = system: HL-60(TB) leukemia
HOP-18 NSCLC = system: HOP-18 NSCLC
HOP-62 NSCLC = system: HOP-62 NSCLC
HOP-92 NSCLC = system: HOP-92 NSCLC
HT29 colon = system: HT29 colon
IGROV1 ovarian = system: IGROV1 ovarian
K-562 leukemia = system: K-562 leukemia
KM12 colon = system: KM12 colon
KM20L2 colon = system: KM20L2 colon
LOX IMVI melanoma = system: LOX IMVI melanoma
LXFL 529 NSCLC = system: LXFL 529 NSCLC
M14 melanoma = system: M14 melanoma
M19-MEL melanoma = system: M19-MEL melanoma
MALME-3M melanoma = system: MALME-3M melanoma
MOLT-4 leukemia = system: MOLT-4 leukemia
NCI-H226 lung = system: NCI-H226 lung
NCI-H23 lung = system: NCI-H23 lung
NCI-H460 lung = system: NCI-H460 lung
NCI-H522 lung = system: NCI-H522 lung
OVCAR-3 ovarian = system: OVCAR-3 ovarian
OVCAR-4 ovarian = system: OVCAR-4 ovarian
OVCAR-5 ovarian = system: OVCAR-5 ovarian
OVCAR-8 ovarian = system: OVCAR-8 ovarian
RPMI-8226 leukemia = system: RPMI-8226 leukemia
RXF 393 renal = system: RXF 393 renal
SF-268 CNS = system: SF-268 CNS
SF-295 CNS = system: SF-295 CNS
SF-539 CNS = system: SF-539 CNS
SK-MEL-2 melanoma = system: SK-MEL-2 melanoma
SK-MEL-28 melanoma = system: SK-MEL-28 melanoma
SK-MEL-5 melanoma = system: SK-MEL-5 melanoma
SK-OV-3 ovarian = system: SK-OV-3 ovarian
SN12C renal = system: SN12C renal
SNB-19 CNS = system: SNB-19 CNS
SNB-75 CNS = system: SNB-75 CNS
SNB-78 CNS = system: SNB-78 CNS
SR leukemia = system: SR leukemia
SW-620 colon = system: SW-620 colon
TK-10 renal = system: TK-10 renal
U251 CNS = system: U251 CNS
UACC-257 melanoma = system: UACC-257 melanoma
UACC-62 melanoma = system: UACC-62 melanoma
UO-31 renal = system: UO-31 renal
XF 498 CNS = system: XF 498 CNS

With `Cc1nc(C(N)=S)sc1C(=O)CC(=O)C(=O)Nc1c(C(C)C)cccc1C(C)C` the TGI (786-0 renal) was > 100 µM, the TGI (A498 renal) was > 100 µM and the TGI (A549 NSCLC) was > 100 µM. The TGI (ACHN renal) was > 100 µM, the TGI (CAKI-1 renal) was > 100 µM and the TGI (CCRF-CEM leukemia) was > 100 µM. The TGI (COLO 205 colon) was > 100 µM, the TGI (DLD-1 colon) was > 100 µM and the TGI (DMS 114 small cell lung) was 64.6 µM. For the same compound, the TGI (EKVX NSCLC) was > 100 µM, the TGI (HCC-2998 colon) was > 100 µM and the TGI (HCT-116 colon) was > 100 µM. The TGI (HCT-15 colon) was > 100 µM, the TGI (HL-60(TB) leukemia) was > 100 µM and the TGI (HOP-18 NSCLC) was > 100 µM. The TGI (HOP-62 NSCLC) was > 100 µM, the TGI (HOP-92 NSCLC) was 92.9 µM and the TGI (HT29 colon) was > 100 µM. The TGI (IGROV1 ovarian) was > 100 µM, the TGI (K-562 leukemia) was > 100 µM and the TGI (KM12 colon) was > 100 µM. For the same compound, the TGI (KM20L2 colon) was > 100 µM, the TGI (LOX IMVI melanoma) was > 100 µM and the TGI (LXFL 529 NSCLC) was > 100 µM. The TGI (M14 melanoma) was > 100 µM, the TGI (M19-MEL melanoma) was > 100 µM and the TGI (MALME-3M melanoma) was > 100 µM. For the same compound, the TGI (MOLT-4 leukemia) was > 100 µM, the TGI (NCI-H226 lung) was > 100 µM and the TGI (NCI-H23 lung) was 88.9 µM. For the same compound, the TGI (NCI-H460 lung) was > 100 µM, the TGI (NCI-H522 lung) was 46.9 µM and the TGI (OVCAR-3 ovarian) was 42 µM. For the same compound, the TGI (OVCAR-4 ovarian) was > 100 µM, the TGI (OVCAR-5 ovarian) was > 100 µM and the TGI (OVCAR-8 ovarian) was > 100 µM. For the same compound, the TGI (RPMI-8226 leukemia) was > 100 µM, the TGI (RXF 393 renal) was > 100 µM and the TGI (SF-268 CNS) was > 100 µM. For the same compound, the TGI (SF-295 CNS) was 85.4 µM, the TGI (SF-539 CNS) was 86.3 µM and the TGI (SK-MEL-2 melanoma) was > 100 µM. For the same compound, the TGI (SK-MEL-28 melanoma) was > 100 µM, the TGI (SK-MEL-5 melanoma) was > 100 µM and the TGI (SK-OV-3 ovarian) was > 100 µM. For the same compound, the TGI (SN12C renal) was > 100 µM, the TGI (SNB-19 CNS) was > 100 µM and the TGI (SNB-75 CNS) was 71.7 µM. The TGI (SNB-78 CNS) was > 100 µM, the TGI (SR leukemia) was > 100 µM and the TGI (SW-620 colon) was > 100 µM. The TGI (TK-10 renal) was > 100 µM, the TGI (U251 CNS) was > 100 µM and the TGI (UACC-257 melanoma) was > 100 µM. The TGI (UACC-62 melanoma) was > 100 µM, the TGI (UO-31 renal) was > 100 µM and the TGI (XF 498 CNS) was 48.8 µM.

— PubChem BioAssay (NCI)
